Experimental data: patent publication US20190224222A1, “METHOD OF INHIBITING QUORUM SENSING USING D-GALACTOSE” (Seoul National University R&DB Foundation, priority 2014, published 2019)

Columns and labels:
[1] = test system: P. gingivalis (Pg) biofilm; experiment: Pg biofilm formation induced by Fn AI-2, crystal violet staining; format: cell-based, P. gingivalis (ATCC 33277)
Protocol: To test biofilm formation by Pg, a test was performed in the same manner as in Example 3. That is, a Pg culture broth (2 ml; negative control group, the number of bacteria: 4×10^8/ml), a mixture of Pg culture broth (2 ml) and Fn AI-2 (10% (v/v) with respect to the total volume of the mixture with Pg culture broth), or a mixture of Pg culture broth (2 ml) and Fn AI-2 (10% (v/v) with respect to the total volume of the mixture with Fn culture broth) and D-gal (2 mM) was added to a 24-well plate with a glass slip (round, 12 mm radius), and cultured under anaerobic conditions for 48˜72 hours. For comparison, 2 μM of the furanone compound [(5Z)-4-bromo-5-(bromomethylene)-2(5H)-furanone] was used instead of D-gal (2 mM) to perform the same test.
Biofilms formed on the cover slips were stained with 10% crystal violet [Tris(4-(dimethylamino)phenyl)methylium chloride] for 10 minutes, washed three times with PBS, and destained with 1 ml of acetone-alcohol (20:80, vol/vol). The optical density at 590 nm of the destaining solution containing crystal violet was measured using a microplate reader (a Wallac Victor3 microtiter, PerkinElmer Life Sciences, Waltham, Mass.). The smaller optical density (OD590) measured at 590 nm represents more inhibition of biofilm formation, that is, higher quorum sensing inhibitory effect of the used QSI candidate.

[2] = test system: P. gingivalis (Pg) biofilm; experiment: Pg biofilm formation induced by Fn AI-2, fluorescence staining (confocal); format: cell-based, P. gingivalis (ATCC 33277); conditions: D-gal 200 mM vs furanone 20 μM
Protocol: Further, inhibitory effects of D-gal on Pg biofilm formation induced by Fn AI-2 were examined by fluorescence staining. 2 ml of Pg culture broth (the number of bacteria: 4×10^8/ml) was used, and Fn AI-2 was used in a volume of 10% (v/v) with respect to the total volume of a mixture with Pg culture broth. 200 mM of D-gal was used, and for comparison, the same test was performed using 20 μM of the furanone compound, instead of D-gal. Biofilms formed on the cover slip were stained with fluorescent materials using the live/dead-BacLight viability kit (Invitrogen, Grand Island, N.Y., USA) and observed using a confocal microscope (Carl Zeiss, LSM 700). […] Fluorescence intensities of the obtained individual fluorescence images were quantified using ZEN 2010 program of a confocal microscope, and shown in FIG. 6.

In the case of `O=C[C@H](O)[C@@H](O)[C@@H](O)[C@H](O)CO` [D-gal, D-galactose], the OD590 nm ([1]; Pg + Fn AI-2 10% (v/v), D-gal 2 mM, 48-72 h, Pg/AI-2 control 2.00, Pg 0.66) was 1.24, the “inhibitory effect on Pg biofilm formation, in words” value ([1]; crystal violet, D-gal 2 mM vs furanone 2 μM) was “equivalent to that of the furanone compound” and the “inhibitory effect on Pg biofilm formation, in words” value [2] was “equivalent to that of the furanone compound”.
